Assay results published in patent US8623859B2, “Bradykinin B1 antagonists” (Evotec AG, priority 2008, dated 2014).
Structures can show the parent of a compound that is named as a salt.

molecular target: T1, human B1 (Homo sapiens, UniProt P46663); test: Calcium flux assay for Bradykinin B1 antagonist, CHO-K1 cell line expressing human B1; format: cell-based; details: CHO-K1 cells expressing human B1, agonist Lys-(Des-Arg)-Bradykinin, read-out: Potency (IC50 value against human B1)
T1 construct: host or cells: CHO-K1
T1 sequence (P46663 1-353): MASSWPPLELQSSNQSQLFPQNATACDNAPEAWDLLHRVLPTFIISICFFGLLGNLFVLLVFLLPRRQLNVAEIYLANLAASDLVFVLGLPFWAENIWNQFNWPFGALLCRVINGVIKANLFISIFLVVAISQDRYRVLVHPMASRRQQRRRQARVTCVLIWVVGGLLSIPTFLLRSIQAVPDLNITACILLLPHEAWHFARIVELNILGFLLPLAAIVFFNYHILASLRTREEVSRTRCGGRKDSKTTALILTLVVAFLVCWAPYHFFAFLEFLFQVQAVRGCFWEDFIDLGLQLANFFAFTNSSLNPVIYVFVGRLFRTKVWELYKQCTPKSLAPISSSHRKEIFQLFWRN
Summary of the method: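 CHO-K1 cells expressing human B1, loaded with 5 μM Fluo-4AM (2 h, 37° C) in HEPES buffer pH 7.4 with probenecid and 0.1% BSA, were preincubated 30 min at 25° C with compound (8 concentrations, triplicate, 1% DMSO) before B1 agonist addition. Ca2+ fluorescence monitored at 538 nm; background-normalized integrated values plotted against log antagonist concentration.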

First: COc1cc(C)c(S(=O)(=O)N(C)Cc2nnc(C(=O)N(C)Cc3nc(CN4CCCC4)cs3)o2)c(C)c1 [Ex 286, 5-({[(4-Methoxy-2,6-dimethylphenyl)sulfonyl](methyl)amino}methyl)-N-methyl-N-{[4-(pyrrolidin-1-ylmethyl)-1,3-thiazol-2-yl]methyl}-1,3,4-oxadiazole-2-carboxamide]
Second: COc1cc(C)c(S(=O)(=O)N(C)Cc2nnc(C(=O)N(C)Cc3cccc(CN4CCCC4)c3)o2)c(C)c1 [Ex 289, 5-({[(4-Methoxy-2,6-dimethylphenyl)sulfonyl](methyl)amino}methyl)-N-methyl-N-[3-(pyrrolidin-1-ylmethyl)benzyl]-1,3,4-oxadiazole-2-carboxamide]
The IC50 of the first is higher: 100 to 1000 nM for the first, 10 to 100 nM for the second.

`COc1cc(C)c(S(=O)(=O)N(C)Cc2nnc(C(=O)N(C)Cc3ccc(CN4CC(OC)C4)cc3)o2)c(C)c1` [Ex 287, N-{4-[(3-Methoxyazetidin-1-yl)methyl]benzyl}-5-({[(4-methoxy-2,6-dimethylphenyl)sulfonyl](methyl)amino}methyl)-N-methyl-1,3,4-oxadiazole-2-carboxamide] and `COc1cc(C)c(S(=O)(=O)N(C)Cc2nnc(C(=O)N(C)Cc3ccc4c(c3)CN(C)C4)o2)c(C)c1` [Ex 288, 5-({[(4-Methoxy-2,6-dimethylphenyl)sulfonyl](methyl)amino}methyl)-N-methyl-N-[(2-methyl-2,3-dihydro-1H-isoindol-5-yl)methyl]-1,3,4-oxadiazole-2-carboxamide] fall in the same range of IC50: 100 to 1000 nM for the first, 100 to 1000 nM for the second.

First: [2H]C([2H])([2H])N(Cc1nnc(C(=O)N2CCN(CC3CCN(C)CC3)CC2)o1)S(=O)(=O)c1c(C)cc(OC)cc1C [Ex 291, 4-Methoxy-2,6-dimethyl-N-(^2H3)methyl-N-{[5-({4-[(1-methylpiperidin-4-yl)methyl]piperazin-1-yl}carbonyl)-1,3,4-oxadiazol-2-yl]methyl}benzenesulfonamide trifluoroacetate]
Second: COc1cc(C)c(S(=O)(=O)N(C)Cc2noc(C(=O)N3CCN(CC4CCN(C)CC4)CC3)n2)c(C)c1 [Ex 305, 4-Methoxy-N,2,6-trimethyl-N-{[5-({4-[(1-methylpiperidin-4-yl)methyl]piperazin-1-yl}carbonyl)-1,2,4-oxadiazol-3-yl]methyl}benzenesulfonamide trifluoroacetate]
The IC50 of the first is higher: 100 to 1000 nM for the first, less than 10 nM for the second.

Compared with `COc1cc(C)c(S(=O)(=O)N(C)Cc2nnc(C(=O)N3CCN(Cc4c[nH]c(C)n4)CC3)o2)c(C)c1` [Ex 292, 4-Methoxy-N,2,6-trimethyl-N-{[5-({4-[(2-methyl-1H-imidazol-4-yl)methyl]piperazin-1-yl}carbonyl)-1,3,4-oxadiazol-2-yl]methyl}benzenesulfonamide], `COc1cc(C)c(S(=O)(=O)N(C)Cc2nnc(C(=O)N3CCN(Cc4ccnc(C)c4)CC3)o2)c(C)c1` [Ex 294, 4-Methoxy-N,2,6-trimethyl-N-{[5-({4-[(2-methylpyridin-4-yl)methyl]piperazin-1-yl}carbonyl)-1,3,4-oxadiazol-2-yl]methyl}benzenesulfonamide] is higher in IC50: less than 10 nM for the first, 10 to 100 nM for the second. The first is the more potent here.

`COc1cc(C)c(S(=O)(=O)N(C)Cc2nnc(C(=O)N3CCN(Cc4cccnc4N)CC3)o2)c(C)c1` [Ex 295, N-{[5-({4-[(2-Aminopyridin-3-yl)methyl]piperazin-1-yl}carbonyl)-1,3,4-oxadiazol-2-yl]methyl}-4-methoxy-N,2,6-trimethylbenzenesulfonamide] and `COc1cc(C)c(S(=O)(=O)N(C)Cc2nnc(C(=O)N3CCN(Cc4ccc(Cl)nc4)CC3)o2)c(C)c1` [Ex 297, N-{[5-({4-[(6-Chloropyridin-3-yl)methyl]piperazin-1-yl}carbonyl)-1,3,4-oxadiazol-2-yl]methyl}-4-methoxy-N,2,6-trimethylbenzenesulfonamide] cannot be ordered by IC50: less than 10 nM for the first, less than 10 nM for the second.

Compared with `COc1cc(C)c(S(=O)(=O)N(C)Cc2nnc(C(=O)N3CCN(Cc4cnc5ccccc5c4)CC3)o2)c(C)c1` [Ex 296, 4-Methoxy-N,2,6-trimethyl-N-[(5-{[4-(quinolin-3-ylmethyl)piperazin-1-yl]carbonyl}-1,3,4-oxadiazol-2-yl)methyl]benzenesulfonamide], `COc1cc(C)c(S(=O)(=O)N(C)Cc2noc(C(=O)N3CCN(CCCN(C)C)CC3)n2)c(C)c1` [Ex 309, N-{[5-({4-[3-(Dimethylamino)propyl]piperazin-1-yl}carbonyl)-1,2,4-oxadiazol-3-yl]methyl}-4-methoxy-N,2,6-trimethylbenzenesulfonamide] is higher in IC50: less than 10 nM for the first, 10 to 100 nM for the second. The first is the more potent here.

`COc1cc(C)c(S(=O)(=O)N(C)Cc2noc(C(=O)N(C)Cc3ccc(CN4CCCC4)cc3)n2)c(C)c1` [Ex 300, 3-({[(4-Methoxy-2,6-dimethylphenyl)sulfonyl](methyl)amino}methyl)-N-methyl-N-[4-(pyrrolidin-1-ylmethyl)benzyl]-1,2,4-oxadiazole-5-carboxamide trifluoroacetamide] and `COc1cc(C)c(S(=O)(=O)N(Cc2noc(C(=O)N(C)Cc3ccc(CN4CCCC4)cc3)n2)C2CC2)c(C)c1` [Ex 306, 3-({Cyclopropyl[(4-methoxy-2,6-dimethylphenyl)sulfonyl]amino}methyl)-N-methyl-N-[4-(pyrrolidin-1-ylmethyl)benzyl]-1,2,4-oxadiazole-5-carboxamide trifluoroacetate] cannot be ordered by IC50: less than 10 nM for the first, less than 10 nM for the second.

First: COc1cc(C)c(S(=O)(=O)N(C)Cc2noc(C(=O)N(C)CCc3ccc(C4=NCCN4)cc3)n2)c(C)c1 [Ex 301, N-{2-[4-(4,5-Dihydro-1H-imidazol-2-yl)phenyl]ethyl}-3-({[(4-methoxy-2,6-dimethylphenyl)sulfonyl](methyl)amino}methyl)-N-methyl-1,2,4-oxadiazole-5-carboxamide trifluoroacetamide]
Second: COc1cc(C)c(S(=O)(=O)N(Cc2noc(C(=O)N(C)Cc3nc(CN4CCCC4)cs3)n2)C2CC2)c(C)c1 [Ex 307, 3-({Cyclopropyl[(4-methoxy-2,6-dimethylphenyl)sulfonyl]amino}methyl)-N-methyl-N-{[4-(pyrrolidin-1-ylmethyl)-1,3-thiazol-2-yl]methyl}-1,2,4-oxadiazole-5-carboxamide trifluoroacetate]
The IC50 of the first is lower: less than 10 nM for the first, 10 to 100 nM for the second. The first is the more potent here.

First: COc1cc(C)c(S(=O)(=O)N(C)Cc2noc(C(=O)N3CCN(C4CCN(C)CC4)CC3)n2)c(C)c1 [Ex 302, 4-Methoxy-N,2,6-trimethyl-N-[(5-{[4-(1-methylpiperidin-4-yl)piperazin-1-yl]carbonyl}-1,2,4-oxadiazol-3-yl)methyl]benzenesulfonamide trifluoroacetate]
Second: COc1cc(C)c(S(=O)(=O)N(Cc2noc(C(=O)N3CCN(C4CCN(C)CC4)CC3)n2)C2CC2)c(C)c1 [Ex 311, N-Cyclopropyl-4-methoxy-2,6-dimethyl-N-[(5-{[4-(1-methylpiperidin-4-yl)piperazin-1-yl]carbonyl}-1,2,4-oxadiazol-3-yl)methyl]benzenesulfonamide]
The IC50 of the first is higher: 100 to 1000 nM for the first, less than 10 nM for the second. The second is the more potent here.

`COc1cc(C)c(S(=O)(=O)N(C)Cc2noc(C(=O)N3CCN(CC4CCCN(C)C4)CC3)n2)c(C)c1` (stereo not shown) [Ex 303, 4-Methoxy-N,2,6-trimethyl-N-{[5-({4-[(1-methylpiperidin-3-yl)methyl]piperazin-1-yl}carbonyl)-1,2,4-oxadiazol-3-yl]methyl}benzenesulfonamide trifluoroacetamide] and `COc1cc(C)c(S(=O)(=O)N(C)Cc2noc(C(=O)N3CCN(CCN4CCCC4)CC3)n2)c(C)c1` [Ex 308, 4-Methoxy-N,2,6-trimethyl-N-[(5-{[4-(2-pyrrolidin-1-ylethyl)piperazin-1-yl]carbonyl}-1,2,4-oxadiazol-3-yl)methyl]benzenesulfonamide] fall in the same range of IC50: 100 to 1000 nM for the first, 100 to 1000 nM for the second.

First: COc1cc(C)c(S(=O)(=O)N(C)Cc2noc(C(=O)N3CCN(CCCN4CCCC4)CC3)n2)c(C)c1 [Ex 304, 4-Methoxy-N,2,6-trimethyl-N-[(5-{[4-(3-pyrrolidin-1-ylpropyl)piperazin-1-yl]carbonyl}-1,2,4-oxadiazol-3-yl)methyl]benzenesulfonamide trifluoroacetamide]
Second: COc1cc(C)c(S(=O)(=O)N(C)Cc2noc(C(=O)N3CCC(CCN4CCCC4)CC3)n2)c(C)c1 [Ex 310, 4-Methoxy-N,2,6-trimethyl-N-[(5-{[4-(2-pyrrolidin-1-ylethyl)piperidin-1-yl]carbonyl}-1,2,4-oxadiazol-3-yl)methyl]benzenesulfonamide]
The IC50 of the first is higher: 100 to 1000 nM for the first, less than 10 nM for the second. The second is the more potent here.

`COc1cc(C)c(S(=O)(=O)N(Cc2noc(C(=O)N3CCC(CCN4CCCC4)CC3)n2)C2CC2)c(C)c1` [Ex 312, N-Cyclopropyl-4-methoxy-2,6-dimethyl-N-[(5-{[4-(2-pyrrolidin-1-ylethyl)piperidin-1-yl]carbonyl}-1,2,4-oxadiazol-3-yl)methyl]benzenesulfonamide] and `COc1cc(C)c(S(=O)(=O)N(Cc2noc(C(=O)N3CCN(CC4CCN(C)CC4)CC3)n2)C2CC2)c(C)c1` [Ex 314, N-Cyclopropyl-4-methoxy-2,6-dimethyl-N-{[5-({4-[(1-methylpiperidin-4-yl)methyl]piperazin-1-yl}carbonyl)-1,2,4-oxadiazol-3-yl]methyl}benzenesulfonamide] cannot be ordered by IC50: less than 10 nM for the first, less than 10 nM for the second.

`COc1cc(C)c(S(=O)(=O)N(Cc2noc(C(=O)N(C)Cc3nnc(CN4CCCC4)s3)n2)C2CC2)c(C)c1` [Ex 313, 3-({Cyclopropyl[(4-methoxy-2,6-dimethylphenyl)sulfonyl]amino}methyl)-N-methyl-N-{[5-(pyrrolidin-1-ylmethyl)-1,3,4-thiadiazol-2-yl]methyl}-1,2,4-oxadiazole-5-carboxamide] was tested, and the IC50 was less than 10 nM.
